Assays:
[1] = Relaxivity measurements (r1 from relaxation times T1/T2, Minispec 120); format: physicochemical
Experimental: […] The longitudinal relaxation time T1 is measured using an inversion recovery sequence and the transverse relaxation time T2 is measured by a CPMG technique.
The relaxation rates R1 (=1/T1) and R2 (=1/T2) were calculated for different total metal concentrations (varying from 0.1×10^−3 to 1×10^−3 mol/l) in aqueous solution at 37° C. The correlation between R1 or R2 as a function of the concentration is linear and the slope represents the relaxivity r1 (RUC) or r2 (R2/C) expressed as (1/second)×(1/mmol/l), i.e. mM^−1·s^−1.
The compounds were prepared in different media: water, NaCl, citrate, phosphate, carbonate, cocktail of ions.

[2] = Osmolality (Wescor 5220 tonometer); format: physicochemical; details: at administration dose of the product in man (500 mM; Gadovist 1000 mM)
[3] = system: C6 glioma; assay: In vivo MRI imaging study, detection of C6 glioma in rat; details: 0.1 mmol/kg, 2.35 T
Experimental: Compounds II (example 2) was compared to Dotarem® ans MultiHance(® for the detection of C6 glioma in rat (n=6/product). Each animal received all the three products at the same dose (0.1 mmol/kg) in a random order. A minimal delay of 4 hours has been respected between the injections in order to avoid remaining contrast from the previous injection. Enhancement was follow-up during 30 min with a T1w-Spin Echo sequence (TR/TE=498/14.2 ms, FOV=4×4 cm2, slice thickness 2 mm, interslice distance 3 mm, 192×192 matrix, 2 accumulation) on a 2.35 T system (BioSpec 24/40, Bruker, Germany). Enhancement of the lesions have been quantitatively (ROIs) and qualitatively (blinded cotation) evaluated. […] However among the three contrast agents, compound II induced a 2 fold-more pronounced contrast between the lesion and the healthy brain.

For `O=C(O)CCC(C(=O)O)N1CCN(C(CCC(=O)O)C(=O)O)CCN(C(CCC(=O)O)C(=O)O)CCN(C(CCC(=O)O)C(=O)O)CC1` (stereo not shown), the “Relaxivity r1 in water (mM − 1s − 1) at 0.5 T” value [1] was 6.2 mM − 1s − 1.
With `O=C([O-])CN1CCN(CC(=O)[O-])CCN([C@H](CO)[C@H](O)CO)CCN(CC(=O)[O-])CC1.[Gd+3]` (racemic) [Gadovist ® (1M)] the “Osmality (mOsm/kg)” value [2] was 1400 mOsm/kg.
For `O=C(O)C(CCO)N1CCN(C(CCO)C(=O)O)Cc2cccc(n2)CN(C(CCO)C(=O)O)CC1` (stereo not shown) [Comparative Example 9], the relaxivity ([1]; field not stated) was 6 and the “Relaxivity r1 in water (mM − 1s − 1) at 0.5 T” value [1] was 6 mM − 1s − 1.
In the case of `CNC[C@H](O)[C@@H](O)[C@H](O)[C@H](O)CO.O=C([O-])CN1CCN(CC(=O)[O-])CCN(CC(=O)O)CCN(CC(=O)[O-])CC1.[Gd+3]` [Dotarem ®], the “Relaxivity r1 at 60 MHz in water” value [1] is reported as 3.5 mM⁻¹ s⁻¹, the “Osmality (mOsm/kg)” value [2] is reported as 1350 mOsm/kg and the “depiction of the lesions” value [3] is reported as “All the lesions have been depicted”.
For `CNC[C@H](O)[C@@H](O)[C@H](O)[C@H](O)CO.CNC[C@H](O)[C@@H](O)[C@H](O)[C@H](O)CO.O=C([O-])CN(CCN(CC(=O)[O-])CC(=O)O)CCN(CC(=O)[O-])CC(=O)O.[Gd+3]` [Magnevist ®], the “Relaxivity r1 at 60 MHz in water” value [1] was 3.5 mM⁻¹ s⁻¹ and the “Osmality (mOsm/kg)” value [2] was 1950 mOsm/kg.
For `CNC[C@H](O)[C@@H](O)[C@H](O)[C@H](O)CO.CNC[C@H](O)[C@@H](O)[C@H](O)[C@H](O)CO.O=C([O-])CN(CCN(CC(=O)[O-])CC(=O)O)CCN(CC(=O)O)C(COCc1ccccc1)C(=O)[O-].[Gd+3]` (stereo not shown) [MultiHance], the “depiction of the lesions” value [3] was “All the lesions have been depicted”.
For `O=C(CCCC(C(=O)O)N1CCN(C(CCCC(=O)NCC(O)CO)C(=O)O)Cc2cccc(n2)CN(C(CCCC(=O)NCC(O)CO)C(=O)O)CC1)NCC(O)CO` (stereo not shown) [complex 7], the “relaxivity at 20 MHz” value ([1]; 20 MHz) was 14.7 mM^−1s^−1 Gd^−1, the “relaxivity at 40 MHz” value ([1]; 40 MHz) was 12.8 mM^−1s^−1 Gd^−1 and the “relaxivity at 300 MHz” value ([1]; 300 MHz) was 10.4 mM^−1s^−1 Gd^−1.
